# Calls of active or inactive are those of the source. No cut-off for these calls is given here.
# Key:
# Mus musculus [1] = experiment: Antiinflammatory activity in cardiac dysfunction C57BL/6J mouse model assessed as decrease in DOX-induced TNF-alpha expression at 7 mg/kg, ip administered daily for 4 weeks by Western blot analysis; assay type: functional, organism-based
# Mus musculus [2] = experiment: Antiinflammatory activity in cardiac dysfunction C57BL/6J mouse model assessed as decrease in DOX-induced IL-6 expression at 7 mg/kg, ip administered daily for 4 weeks by Western blot analysis; assay type: functional, organism-based
# Mus musculus [3] = experiment: Protection against cardiac dysfunction C57BL/6J mouse model assessed as increase in DOX-reduced cardiac GPX1 expression at 7 mg/kg, ip administered daily for 4 weeks by Western blot analysis; assay type: functional, organism-based
# RAW264.7 [4] = experiment: Antiinflammatory activity in mouse RAW264.7 cells assessed as LPS-induced NO production preincubated for 1 hr followed by LPS treatment for 24 hrs by Griess reagent based assay; assay type: functional; conditions: time 25 hrs
# H9c2 [5] = experiment: Antiinflammatory activity against rat H9c2 cells assessed as decrease in DOX-induced IL-1beta expression upto 10 uM preincubated for 1 hr followed by DOX treatment for 12 hrs by Western blot analysis; assay type: functional, cell-based; conditions: time 13.0 hrs
# Mus musculus [6] = experiment: Antiinflammatory activity in cardiac dysfunction C57BL/6J mouse model assessed as decrease in DOX-induced IL-1beta expression at 7 mg/kg, ip administered daily for 4 weeks by Western blot analysis; assay type: functional, organism-based
# Mus musculus [7] = experiment: Protection against cardiac dysfunction C57BL/6J mouse model assessed as increase in DOX-reduced cardiac SOD1 expression at 7 mg/kg, ip administered daily for 4 weeks by Western blot analysis; assay type: functional, organism-based
# Mus musculus [8] = experiment: Protection against cardiac dysfunction C57BL/6J mouse model assessed as decrease in DOX-induced serum LDH level at 7 mg/kg, ip administered daily for 4 weeks; assay type: functional, organism-based
# RAW264.7 [9] = experiment: Inhibition of ROS generation in mouse RAW264.7 cells assessed as increase in DOX-reduced Nrf2 expression upto 10 uM preincubated for 1 hr followed by DOX treatment for 12 hrs by Western blot analysis; assay type: functional, cell-based; conditions: time 13.0 hrs
# Mus musculus [10] = experiment: Protection against cardiac dysfunction C57BL/6J mouse model assessed as decrease in DOX-induced alpha-SMA expression at 7 mg/kg, ip administered daily for 4 weeks by Western blot analysis; assay type: functional, organism-based
# RAW264.7 [11] = experiment: Antiinflammatory activity against mouse RAW264.7 cells assessed as decrease in LPS-induced IL-6 expression upto 10 uM preincubated for 1 hr followed by LPS treatment for 24 hrs by Western blot analysis; assay type: functional, cell-based; conditions: time 25.0 hrs
# RAW264.7 [12] = experiment: Antiinflammatory activity in mouse RAW264.7 cells assessed as decrease in LPS-induced COX2 expression preincubated for 1 hr followed by LPS treatment for 24 hrs by Western blot analysis; assay type: functional, cell-based; conditions: dose <= 10.0 µM, time 25.0 hrs
# RAW264.7 [13] = experiment: Inhibition of ROS generation in mouse RAW264.7 cells assessed as increase in DOX-reduced CAT expression upto 10 uM preincubated for 1 hr followed by DOX treatment for 12 hrs by Western blot analysis; assay type: functional, cell-based; conditions: time 13.0 hrs
# RAW264.7 [14] = experiment: Antiinflammatory activity in mouse RAW264.7 cells assessed as decrease in LPS-induced NO production at 10 uM preincubated for 1 hr followed by LPS treatment for 24 hrs by Griess reagent based assay; assay type: functional, cell-based; conditions: time 25.0 hrs
# H9c2 [15] = experiment: Antiinflammatory activity against rat H9c2 cells assessed as decrease in LPS-induced NF-kappaB phosphorylation upto 10 uM preincubated for 1 hr followed by LPS treatment for 24 hrs by Western blot analysis; assay type: functional, cell-based; conditions: time 25.0 hrs
# Mus musculus [16] = experiment: Protection against cardiac dysfunction C57BL/6J mouse model assessed as decrease in DOX-induced serum ALP level at 7 mg/kg, ip administered daily for 4 weeks; assay type: functional, organism-based
# Mus musculus [17] = experiment: Protection against cardiac dysfunction C57BL/6J mouse model assessed as increase in DOX-reduced cardiac NQO1 expression at 7 mg/kg, ip administered daily for 4 weeks by Western blot analysis; assay type: functional, organism-based
# RAW264.7 [18] = experiment: Inhibition of ROS generation in mouse RAW264.7 cells preincubated for 1 hr followed by LPS treatment for 24 hrs by DCFH-DA dye based analysis; assay type: functional, cell-based; conditions: dose <= 10.0 µM, time 25.0 hrs
# Mus musculus [19] = experiment: Protection against cardiac dysfunction C57BL/6J mouse model assessed as decrease in DOX-induced serum CK level at 7 mg/kg, ip administered daily for 4 weeks; assay type: functional, organism-based
# Mus musculus [20] = experiment: Protection against cardiac dysfunction C57BL/6J mouse model assessed as decrease in DOX-induced serum ALT level at 7 mg/kg, ip administered daily for 4 weeks; assay type: functional, organism-based
# RAW264.7 [21] = experiment: Antiinflammatory activity in mouse RAW264.7 cells assessed as decrease in LPS-induced NO production preincubated for 1 hr followed by LPS treatment for 24 hrs by Griess reagent based assay; assay type: functional, cell-based; conditions: dose <= 10.0 µM, time 25.0 hrs
# Mus musculus [22] = experiment: Protection against cardiac dysfunction C57BL/6J mouse model assessed as increase in DOX-reduced heart rate at 7 mg/kg, ip administered daily for 4 weeks by echocardiography; assay type: functional, organism-based
compound,measurement,setting,value
CCCCOc1ccc(/C=C/c2cc(OC)cc(OC)c2C2CC(C)=NN2C(C)=O)cc1 (configuration not stated),Activity,Mus musculus [1],Active
same,Activity,Mus musculus [2],Active
same,Activity,Mus musculus [3],Active
same,Activity,RAW264.7 [4],0.198 µM
same,Activity,H9c2 [5],Active
same,Activity,Mus musculus [6],Active
same,Activity,Mus musculus [7],Active
same,Activity,Mus musculus [8],Active
same,inhibition,RAW264.7 [9],Active
same,Activity,Mus musculus [10],Active
same,Activity,RAW264.7 [11],Active
same,Activity,RAW264.7 [12],Dose-Dependent Effect
same,inhibition,RAW264.7 [13],Active
same,Activity,RAW264.7 [14],Active
same,Activity,H9c2 [15],Active
same,Activity,Mus musculus [16],Active
same,Activity,Mus musculus [17],Active
same,inhibition,RAW264.7 [18],Dose-Dependent Effect
same,Activity,Mus musculus [19],Active
same,Activity,Mus musculus [20],Active
same,Activity,RAW264.7 [21],Dose-Dependent Effect
same,Activity,Mus musculus [22],Active

# — ChEMBL document CHEMBL5620413, “Novel pterostilbene derivatives ameliorate heart failure by reducing oxidative stress and inflammation through regulating Nrf2/NF-κB signaling pathway” (Eur J Med Chem, 2023)
